{
  "source": "patent US9090897B2",
  "about": "“Production of IFN-lambda by conventional dendritic cells” (Bavarian Nordic A/S, priority 2009, dated 2015)",
  "key": {"[1]": {"test_system": "mice", "assay": "In vivo challenge (i.v.), serum IFN-λ and IFN-α by ELISA", "parameters": "species or system mouse", "details": "100 μg i.v.", "protocol": "Mice were injected i.v. into the lateral tail vein with 100 μg poly IC (Axxora) and serum was collected 3-4 h after challenge. Sera were pre-diluted 1/5, […] was analyzed by ELISA as described (Hochrein et al., 2004). IFN-λ was determined by an IFN-λ3 (IL-28B) ELISA (R&D Systems)."}, "[2]": {"test_system": "BDCA3+ DC", "assay": "Stimulation of human BDCA3+ DC, IFN-λ1 and IFN-λ2 ELISA", "type": "cell-based", "details": "BDCA3 positive cells vs BDCA1 cells, all donors, 100 μg/ml, 18-24 h", "protocol": "(§1) PBMC were prepared from peripheral blood of non-atopic blood donors by density gradient centrifugation and BDCA3+ DC were purified from PBMC using the BDCA3/CD141+Dendritic Cell Isolation Kit (Miltenyi Biotech) on an AutoMACS™ separator. Subsequently, BDCA1+ DC were purified from the BDCA3-depleted PBMC using the BDCA1/CD1c+ Dendritic Cell Isolation Kit (Miltenyi Biotech). […] After stimulation for 18-24 h the supernatants were analyzed for IFN-λ1 and IFN-λ2 by ELISA according to manufacturer's recommendations (Tebu-bio)."}, "[3]": {"test_system": "PBMC", "assay": "Stimulation of human PBMC, IFN-λ1 and IFN-λ2 ELISA", "type": "cell-based", "details": "PBMCs and fractions of DC-enriched PBMCs, IL-3, GM-CSF and IFN-γ, 18-24 h", "protocol": "as §1"}, "[4]": {"test_system": "total non parenchymal liver cells", "assay": "In vitro stimulation of total non parenchymal liver cells, IFN-λ and IL-12p70", "type": "cell-based, mouse", "details": "liver cells from WT mice, 2.5×10^6/ml, IL-3+IL-4+IFN-γ+GM-CSF, 18 h", "protocol": "FIGS. 3A and B depict that FL is involved in the production of IFN-λ in vivo. (A) Isolated total non parenchymal liver cells 2.5×10^6/ml were stimulated in the presence of IL-3+IL-4+IFN-γ+GM-CSF with the stimuli as indicated. After 18 h supernatants were analyzed for IFN-λ and IL-12p70. Representative results of 3 experiments are shown. Data represent mean+/−SD of duplicate samples. (B) WT and FL-KO mice were injected i.v. with 100 μg poly IC. After 3-4 h sera were analyzed for IFN-λ and IFN-α. Circles indicate the results of individual mice and columns represent the mean thereof.\nCells were stimulated in vitro with single TLR agonists or combinations thereof containing 10 μg/ml Pam3Cys (InvivoGen), 100 μg/ml poly IC (Axxora), 10 μg/ml LPS (E. coli; Sigma-Aldrich or Axxora), 10 μg/ml R848 (Axxora), 1 μM CpG-1668 or CpG-2216 (TIB-Molbiol), 1 μg/ml profilin of toxoplasma (Axxora). The recombinant cytokines mouse-IL-3, mouse-IL-4, rat-IFN-γ (PeproTech) and mouse-GM-CSF (Tebu-Bio) (10 ng/ml each) were added as indicated. […] IFN-λ in supernatants was analyzed by ELISA and IL-12p70 was determined by FlowCytomix bead assay (Bender Medsystems) according to manufacturer's protocol. […]"}, "[5]": {"test_system": "mice", "assay": "In vivo challenge (i.v.), serum IFN-λ and IFN-α by ELISA", "parameters": "species or system mouse", "details": "100 μg i.v.", "remark": "listed apart in the source"}, "[6]": {"test_system": "splenic CD8+ cDC", "assay": "In vitro stimulation of sorted splenic CD8+ cDCs, cytokines in supernatant (IFN-λ ELISA, IL-12p70 FlowCytomix)", "type": "cell-based, mouse", "details": "5×10^5/ml, IL-3 and GM-CSF, supernatants after 18 h", "from_the_text": "DC subsets were isolated from pooled mouse spleens as described (Vremec et al., 2007). Briefly, spleens were chopped, digested with collagenase (Worthington Biochemical) and DNase (Roche) at room temperature, and treated with EDTA. Low-density cells were enriched by density centrifugation; non-DC lineage cells were coated with mAbs (anti-CD3, KT3-1.1; anti-Thy-1, T24/31.7; anti Gr-1, 1A8; anti-CD19, ID3; anti-erythrocytes, TER119 and anti-NK cells, DX5) and depleted using anti-rat Ig magnetic beads (Qiagen). Dead cells were excluded by propidium iodide staining. cDC populations were sorted based on the expression of CD11c, CD45RA, CD4, CD8a and CD172a and pDCs were purified based on CD11c, CD45RA, and CD172a (all BD Biosciences) expression. Cell sorting was performed on a FACS Aria instrument (BD Biosciences).\nCells were stimulated in vitro with single TLR agonists or combinations thereof containing 10 μg/ml Pam3Cys (InvivoGen), 100 μg/ml poly IC (Axxora), 10 μg/ml LPS (E. coli; Sigma-Aldrich or Axxora), 10 μg/ml R848 (Axxora), 1 μM CpG-1668 or CpG-2216 (TIB-Molbiol), 1 μg/ml profilin of toxoplasma (Axxora). The recombinant cytokines mouse-IL-3, mouse-IL-4, rat-IFN-γ (PeproTech) and mouse-GM-CSF (Tebu-Bio) (10 ng/ml each) were added as indicated. The addition of IL-3 and GM-CSF was based on previous observations that GM-CSF promoted the production of IL-12p70 and that the combination of IL-3 and GM-CSF increased virus induced IFN-λ production in pDCs and cDCs (Hochrein et al., 2000; Hochrein et al., 2004). As source of a parapoxvirus Zylexis, which is used for veterinary purposes was purchased from a pharmacy. HSV-1, in replication deficient form known as disc HSV-1 (HSV-1d) was used as described (Hochrein et al., 2004). IFN-λ in supernatants was analyzed by ELISA and IL-12p70 was determined by FlowCytomix bead assay (Bender Medsystems) according to manufacturer's protocol."}, "[7]": {"test_system": "CD8α+ cDCs", "assay": "In vitro stimulation of FL expanded ex-vivo isolated splenic CD8α+ cDCs, IFN-λ", "type": "cell-based, mouse", "details": "5×10^5/ml, IL-3+GM-CSF+IL-4+IFN-γ, 100 μg/ml, 18 h", "protocol": "FIG. 13 depicts that in vivo FL expanded CD8α+cDCs and eCD8α cDCs selectively produce IFN-λ to poly AU in vitro. Highly purified FL expanded ex-vivo isolated splenic 5×10^5/ml were stimulated in the presence of IL-3+GM-CSF+IL-4+IFN-γ with either poly IC (100 μg/ml) or poly AU (100 μg/ml). After 18 h supernatants were analyzed for IFN-λ.\nTo see if the IFN-λ production to poly AU seen in vivo would correspond with the same cells as in response to poly IC we enhanced the amount of DC in mice with FL treatment and sorted CD8α+ cDCs, eCD8α cDCs and CD11b+/CD172a+cDCs. Those cells were stimulated with poly IC or poly AU."}},
  "note": "Entries after “also recorded” stand apart in the source; their conditions may differ.",
  "data": [
    {"substance": "Polyinosinic:polycytidylic acid [poly IC]", "values": [
      {"measurement": "serum IFN-λ, dependence on hematopoietic cells, FL and IRF8", "setting": "[1]; BM reconstituted, IL-15R-KO, RAG1-KO, FL-KO, IRF8-KO vs WT mice (FIG. 16), 3-4 h", "result": "depends on hematopoietic cells, FL and IRF8"},
      {"measurement": "Serum levels of IFN-λ", "setting": "[1]; FL-KO mice, 3-4 h", "result": "almost abrogated"},
      {"measurement": "serum IFN-λ", "setting": "[1]; IRF7-KO mice, 3-4 h", "result": "largely reduced"},
      {"measurement": "serum IFN-λ", "setting": "[1]; TLR3-KO mice, 3-4 h", "result": "abrogated IFN-λ production"},
      {"measurement": "Serum levels of IFN-λ", "setting": "[1]; WT mice, sera after 3-4 h", "result": "easily detectable; also recorded: Large amounts"},
      {"measurement": "serum IFN-λ, dependence on IRF3 and IRF7", "setting": "[1]; mice of indicated genotype (FIG. 15), 3-4 h", "result": "depends on IRF3 and IRF7"},
      {"measurement": "IFN-λ1 production", "setting": "[2]", "result": "major producers"},
      {"measurement": "IFN-λ2 production", "setting": "[2]", "result": "major producers"},
      {"measurement": "IFN-λ1 (IL-29) production", "setting": "[3]", "result": "induced"},
      {"measurement": "IFN-λ2 (IL-28A) production", "setting": "[3]", "result": "induced"},
      {"measurement": "IFN-λ production", "setting": "[4]", "result": "produced IFN-λ"},
      {"measurement": "serum IFN-α", "setting": "[5]; Cardif-KO mice, 3-4 h", "result": "complete abrogation of serum IFN-α"},
      {"measurement": "serum IFN-λ", "setting": "[5]; Cardif-KO mice, 3-4 h", "result": "no effects on IFN-λ production"},
      {"measurement": "Serum levels of IFN-α", "setting": "[5]; FL-KO mice, 3-4 h", "result": "remained easily detectable"},
      {"measurement": "systemic production of IFN-α", "setting": "[5]; IFN-AR-KO vs WT mice, 3-4 h", "result": "largely dependent on the presence of IFN-AR"},
      {"measurement": "systemic production of IFN-λ", "setting": "[5]; IFN-AR-KO vs WT mice, 3-4 h", "result": "largely dependent on the presence of IFN-AR"},
      {"measurement": "serum IFN-α", "setting": "[5]; IRF7-KO mice, 3-4 h", "result": "almost abrogated"},
      {"measurement": "serum IFN-α", "setting": "[5]; MyD88-KO mice, 3-4 h", "result": "Large amounts"},
      {"measurement": "serum IFN-λ", "setting": "[5]; MyD88-KO mice, 3-4 h", "result": "Large amounts"},
      {"measurement": "serum IFN-α", "setting": "[5]; TLR3-KO mice, 3-4 h", "result": "no effect on the production of IFN-α"},
      {"measurement": "Serum levels of IFN-α", "setting": "[5]; WT mice, sera after 3-4 h", "result": "easily detectable; also recorded: Large amounts"},
      {"measurement": "IFN-λ production", "setting": "[6]", "result": "major producers; also recorded: induced IFN-λ"},
      {"measurement": "IL-12p70 production", "setting": "[6]", "result": "not IL-12p70 production"},
      {"measurement": "IFN-λ production", "setting": "[7]", "result": "able to produce IFN-λ"}
    ]}
  ]
}
